Values joined by “and” are separate entries in the source; they are usually repeats but may differ in a detail not shown here. Equal entries are not always repeated. Where two headings read alike, the source gives them in different places.
Key:
[1] = test system: FMR1 RNA (full-length FMR1 and FMR1-217) in FXS1 and FXS2 LCLs; assay: 5-AzadC treatment of FXS lymphoblast cell lines, RT-qPCR of full-length FMR1 and FMR1-217 RNA relative to GAPDH; type: cell-based, human; details: 1 μM, seven days, RT-qPCR normalized to GAPDH
Procedure: One μg of total RNA was primed with oligo(dT)20 to generate cDNA with a QuantiTect cDNA synthesis kit (Qiagen, #205311) using random hexamers. qPCR was performed using the iTaq™ Universal SYBR® Green Supermix (BIO-RAD #1725122) on a QuantStudio 3 qPCR machine in duplicate.
Lymphoblast cell lines (LCL) were obtained from Coriell Institute from two FXS individuals (GM07365 (FXS1), GM06897 (FXS2)) and two typically developing control males (GM07174 (WT3), GM06890 (WT4)). Cells were cultured in RPMI 1640 medium (Sigma-Aldrich), supplemented with 15% fetal bovine serum (FBS) and 2.5% L-glutamine at 37° C. with 5% CO2 in T25 flasks.
For each cell culture, 30×10^5 cells/ml were added to a final volume of 20 ml media (RPMI1640 medium (Sigma-Aldrich) supplemented with 15% fetal bovine serum (FBS) and 2.5% L-glutamine at 37° C. with 5% C02) per T25 flask. 5-Aza-2′-deoxycytidine (5-AzadC) (Sigma-Aldrich, A3656) was added to the cell cultures (final concentration 1 μM) for 7 consecutive days. A 2 mM stock of 5-AzadC was made in DMSO. For each cell line, two independent treatments were performed (n=2). For the no treatment controls for each cell line, DMSO was added to the flasks. For samples with both 5-AzadC and ASO treatment, 80 nM or 160 nM ASOs or vehicle were added on Day 1 and either 5-AzadC or DMSO was added each day from Day 2 up to Day 9 at a final concentration of 1 μM. On Day 9 the cells were collected in 1× phosphate buffered saline to proceed with RNA extraction or Western blotting.
DNA methylation of the CpG island upstream of the FMR1 gene promoter in FXS individuals (MFM, Methylated full mutation) contributes to transcriptional silencing of the locus and loss of FMRP. FMR1 transcription can be reactivated by treatment with the nucleoside analogue 5-AzadC (5-aza-2′-deoxycytidine), which inhibits DNA methylation (Tabolacci et al., 2016b, 2016a). […] Next, FXS1 and FXS2 cell lines were treated with the 5-AzadC and then measured FMR1 RNA and FMRP levels. […]

FMRP = assay: 5-AzadC treatment of FXS lymphoblast cell lines, western blot of FMRP relative to GAPDH; type: cell-based, human; details: FXS1 and FXS2 LCLs, 5-AzadC vs DMSO
Procedure: For each cell culture, 30×10^5 cells/ml were added to a final volume of 20 ml media (RPMI1640 medium (Sigma-Aldrich) supplemented with 15% fetal bovine serum (FBS) and 2.5% L-glutamine at 37° C. with 5% C02) per T25 flask. 5-Aza-2′-deoxycytidine (5-AzadC) (Sigma-Aldrich, A3656) was added to the cell cultures (final concentration 1 μM) for 7 consecutive days. A 2 mM stock of 5-AzadC was made in DMSO. For each cell line, two independent treatments were performed (n=2). For the no treatment controls for each cell line, DMSO was added to the flasks. […]
Cells were homogenized at 4° C. in RIPA buffer, with incubation on ice for 10 minutes and dissociation by pipetting. […] Protein concentration was determined using BCA reagent. Proteins ([…]) were diluted in SDS-bromophenol blue reducing buffer with 40 mM DTT and analyzed using western blotting with the following antibodies: FMRP (Millipore, mAb2160, 1:1,000), FMRP (Abcam, ab17722, 1:1,000) and GAPDH (14C10, Cell Signaling Technology, mAb 2118, 1:2,000), diluted in 1× TBST with 5% non-fat milk. […]
DNA methylation of the CpG island upstream of the FMR1 gene promoter in FXS individuals (MFM, Methylated full mutation) contributes to transcriptional silencing of the locus and loss of FMRP. […] Next, FXS1 and FXS2 cell lines were treated with the 5-AzadC and then measured FMR1 RNA and FMRP levels. […]

[2] = test system: FMR1 transcripts (total, FMR1-205, FMR1-217) in FXS-NSC; details: FXS iPSC-derived NSCs, re-analyzed from RNA-seq data of Vershkov et al., cited from earlier work
[3] = FXS1 LCL (GM07365, fully methylated)

Compound: Nc1ncn([C@H]2C[C@H](O)[C@@H](CO)O2)c(=O)n1 [5-AzadC, 5-Aza-2′-deoxycytidine]
- FMR1-217 RNA relative to DMSO-treated cells [1, 3]: significant increases
- full-length FMR1 RNA relative to DMSO-treated cells [1, 3]: significant increases
- full-length FMR1 and FMR1-217 RNA relative to DMSO-treated cells ([1]; FXS2 LCL (GM06897, partially methylated)): increase of only full-length FMR1 RNA
- FMRP level (FMRP/GAPDH, western blot) (FMRP): In neither cell line did 5-AzadC treatment induce an increase in FMRP
- FMR1 (Total) reads ([2]; biologic duplicates): 9.9 TPM and 6.1 TPM
- FMR1-217 reads ([2]; biologic duplicates): 6.9 TPM and 3.9 TPM
- FMR1-217 expression (RNA-seq reads), in words [2]: strong FMR1-217 expression was observed only in the 5-AzadC-treated cells
- total FMR1 and FMR1-205 expression (RNA-seq reads), in words [2]: strong total FMR1 and FMR1-205 expression
- FMR1-217 expression (RNA-seq reads), in words ([2]; listed as 5-azadC): FMR1-217 reads are detected only in the 5-azadC-treated samples
